Data on one molecule can be found in article PMC7606486, “CFAP45 deficiency causes situs abnormalities and asthenospermia by disrupting an axonemal adenine nucleotide homeostasis module” (Nature Communications, 2020).

One assay addresses T1, AK8 (Homo sapiens, UniProt Q96MA6).
T1 sequence (Q96MA6 1-479): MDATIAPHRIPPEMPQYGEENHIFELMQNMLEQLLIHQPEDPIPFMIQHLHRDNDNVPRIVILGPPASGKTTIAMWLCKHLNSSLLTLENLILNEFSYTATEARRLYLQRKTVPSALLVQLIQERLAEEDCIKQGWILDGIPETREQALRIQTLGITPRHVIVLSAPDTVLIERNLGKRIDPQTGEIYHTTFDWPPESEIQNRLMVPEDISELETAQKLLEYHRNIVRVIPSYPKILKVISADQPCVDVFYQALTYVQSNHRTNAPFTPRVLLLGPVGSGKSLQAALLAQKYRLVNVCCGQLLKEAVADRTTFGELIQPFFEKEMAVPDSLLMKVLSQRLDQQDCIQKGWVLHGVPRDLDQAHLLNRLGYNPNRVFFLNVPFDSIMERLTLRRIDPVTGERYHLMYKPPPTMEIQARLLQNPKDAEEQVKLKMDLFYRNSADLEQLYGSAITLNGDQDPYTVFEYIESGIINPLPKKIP
Briefly: AMP-agarose pull-down, anti-FLAG immunoblot. The class given is binding. The settings on record: AMP immobilised on agarose, preferentially the αAH-AMP resin; 500 mM NaCl lysis buffer; labelled compound. (In general: Immunoblotting shows a protein as a band on a membrane.)

In a further assay the target is T2, CFAP45 (Homo sapiens, UniProt Q9UL16).
T2 construct: full length, 551 aa, 66 kDa
Briefly: AMP-agarose pull-down, immunoblot or silver stain. The class given is binding. Conditions: AMP immobilised on agarose, best with the 6AH-AMP resin; sperm eluates released with 100 mM free 5'-AMP; 500 mM NaCl lysis buffer, pH 8.0, 4 °C; labelled compound.

T2 sequence (Q9UL16 whole entry): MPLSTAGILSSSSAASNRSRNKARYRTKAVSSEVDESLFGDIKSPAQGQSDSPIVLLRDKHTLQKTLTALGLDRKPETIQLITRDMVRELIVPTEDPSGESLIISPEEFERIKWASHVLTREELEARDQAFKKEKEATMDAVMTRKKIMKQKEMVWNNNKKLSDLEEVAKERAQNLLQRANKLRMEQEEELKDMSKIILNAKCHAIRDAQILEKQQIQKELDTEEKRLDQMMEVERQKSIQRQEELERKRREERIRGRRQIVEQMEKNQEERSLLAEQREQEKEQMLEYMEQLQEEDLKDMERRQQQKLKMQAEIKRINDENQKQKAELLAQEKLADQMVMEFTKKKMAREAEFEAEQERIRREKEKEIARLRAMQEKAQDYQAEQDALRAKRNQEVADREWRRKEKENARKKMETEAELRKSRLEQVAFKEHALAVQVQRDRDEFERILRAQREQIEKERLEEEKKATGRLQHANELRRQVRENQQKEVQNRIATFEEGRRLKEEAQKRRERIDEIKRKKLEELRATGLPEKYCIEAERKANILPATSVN

For the molecule `Nc1ncnc2c1ncn2[C@@H]1O[C@H](COP(=O)(O)O)[C@@H](O)[C@H]1O` [AMP], the “AMP-agarose pull-down, anti-FLAG immunoblot” value on AK8 was “NTAP-AK8 shows affinity to αAH-AMP-agarose following elution and IB with monoclonal anti-FLAG antibody”. Also, the “AMP-agarose pull-down, immunoblot or silver stain” value on CFAP45 is “CFAP45 immunoprecipitates recovered from human sperm (see “Methods”) showed affinity to AMP, especially 6AH-AMP-agarose”.
